This experiment concerns the target T1, KCNQ2/3 channels (Homo sapiens, UniProt O43525+O43526).
T1 construct: expressed in transfected cells
The experiment can be described thus: Fluorescence assay using a voltage sensitive dye (fluorimetry). Type of experiment: cell-based. Conditions: CHO-K1 cells expressing KCNQ2/3; for Emax: CHO-K1, plateau effect relative to saturated retigabine (50 μM) = 100%, negative values = antagonistic, read-out: Fluorimetry % efficacy (retigabine = 100%); for EC50: IC50 where % efficacy is negative, read-out: Fluorimetry EC50/IC50.

Each structure is given as a SMILES string.

T1 sequence (O43526 whole entry): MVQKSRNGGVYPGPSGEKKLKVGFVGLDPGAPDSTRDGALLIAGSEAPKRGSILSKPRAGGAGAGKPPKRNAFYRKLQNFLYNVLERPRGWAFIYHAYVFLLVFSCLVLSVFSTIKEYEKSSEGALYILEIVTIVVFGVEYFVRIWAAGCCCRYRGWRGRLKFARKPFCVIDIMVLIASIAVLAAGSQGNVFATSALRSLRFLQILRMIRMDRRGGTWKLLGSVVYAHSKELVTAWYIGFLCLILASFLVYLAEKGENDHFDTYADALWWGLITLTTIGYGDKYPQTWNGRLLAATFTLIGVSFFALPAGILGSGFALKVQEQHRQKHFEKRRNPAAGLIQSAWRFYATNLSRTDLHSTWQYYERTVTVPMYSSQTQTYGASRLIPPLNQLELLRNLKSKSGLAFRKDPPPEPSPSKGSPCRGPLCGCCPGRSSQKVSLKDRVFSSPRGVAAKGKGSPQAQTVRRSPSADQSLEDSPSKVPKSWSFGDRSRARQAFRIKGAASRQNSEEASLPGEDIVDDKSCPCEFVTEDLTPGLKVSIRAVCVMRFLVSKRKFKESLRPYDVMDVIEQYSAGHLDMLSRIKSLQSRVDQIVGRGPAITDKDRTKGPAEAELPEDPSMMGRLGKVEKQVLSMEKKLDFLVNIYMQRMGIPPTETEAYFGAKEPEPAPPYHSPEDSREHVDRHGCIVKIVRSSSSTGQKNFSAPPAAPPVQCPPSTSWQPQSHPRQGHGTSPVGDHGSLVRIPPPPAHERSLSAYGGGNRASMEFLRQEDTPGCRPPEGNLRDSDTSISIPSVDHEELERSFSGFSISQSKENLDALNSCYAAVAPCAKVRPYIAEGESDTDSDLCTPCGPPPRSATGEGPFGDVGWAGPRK
T1 sequence (O43525 whole entry): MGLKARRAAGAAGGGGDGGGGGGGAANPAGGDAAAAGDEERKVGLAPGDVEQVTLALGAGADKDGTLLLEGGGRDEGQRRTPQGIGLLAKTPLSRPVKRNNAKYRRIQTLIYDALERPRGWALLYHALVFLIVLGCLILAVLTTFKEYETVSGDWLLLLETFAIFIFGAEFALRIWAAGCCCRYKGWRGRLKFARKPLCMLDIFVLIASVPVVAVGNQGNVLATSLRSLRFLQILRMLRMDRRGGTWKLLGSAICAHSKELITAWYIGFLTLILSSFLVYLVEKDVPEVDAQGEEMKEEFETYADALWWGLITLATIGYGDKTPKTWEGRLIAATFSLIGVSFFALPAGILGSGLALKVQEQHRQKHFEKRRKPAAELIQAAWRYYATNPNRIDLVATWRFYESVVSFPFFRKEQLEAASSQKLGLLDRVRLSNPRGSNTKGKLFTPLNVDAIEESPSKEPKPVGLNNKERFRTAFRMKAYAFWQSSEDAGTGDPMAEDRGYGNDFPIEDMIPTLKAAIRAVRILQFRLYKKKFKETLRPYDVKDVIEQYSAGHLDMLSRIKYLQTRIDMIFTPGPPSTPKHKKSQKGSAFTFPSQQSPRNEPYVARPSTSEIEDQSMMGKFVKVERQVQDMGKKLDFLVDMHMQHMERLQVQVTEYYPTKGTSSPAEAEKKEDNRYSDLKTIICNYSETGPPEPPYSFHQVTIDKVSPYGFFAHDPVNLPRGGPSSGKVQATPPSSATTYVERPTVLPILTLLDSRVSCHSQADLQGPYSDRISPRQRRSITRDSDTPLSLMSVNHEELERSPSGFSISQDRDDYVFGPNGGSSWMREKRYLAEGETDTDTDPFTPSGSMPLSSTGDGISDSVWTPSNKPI

`CCSc1nc(N2CCOCC2)cc(C)c1C(=O)NCc1ccc(SC(F)(F)F)cc1` [Example 75, 2-Ethylsulfanyl-4-methyl-6-morpholin-4-yl-N-[[4-(trifluoromethylsulfanyl)-phenyl]-methyl]-pyridine-3-carboxylic acid amide]: the Emax turned out to be 135% and the EC50 came to 61 nM.

Consider `CCSc1nc(N(CCOC)Cc2ccc(F)cc2)cc(C)c1C(=O)NCc1cccc(F)c1` [Example 342, 2-Ethylsulfanyl-N-[(3-fluorophenyl)-methyl]-6-[(4-fluorophenyl)-methyl-(2-methoxy-ethyl)-amino]-4-methyl-pyridine-3-carboxylic acid amide], for which the Emax was found to be 124% and the EC50 came to 291 nM.

Take `Cc1cc(N2CCOCC2)nc(N(C)C)c1C(=O)NCCCC(C)(C)C` [Example 245, 2-Dimethylamino-N-(4,4-dimethyl-pentyl)-4-methyl-6-morpholin-4-yl-pyridine-3-carboxylic acid amide]: the Emax is 225% and the EC50 was 345 nM.

Turning to `CCCCCCCNC(=O)c1c(C)cc(N2CCOCC2)nc1SCC` [Example 209, 2-Ethylsulfanyl-N-heptyl-4-methyl-6-morpholin-4-yl-pyridine-3-carboxylic acid amide], the Emax worked out at 192% and the EC50 was found to be 234 nM.

`CCSc1nc(N2C3CCC2COC3)cc(C)c1C(=O)NCc1cccc(F)c1` [Example 345, 2-Ethylsulfanyl-N-[(3-fluorophenyl)-methyl]-4-methyl-6-(3-oxa-8-azabicyclo[3.2.1]octan-8-yl)-pyridine-3-carboxylic acid amide]: the Emax came out at 200% and the EC50 was 122 nM.

`CCSc1nc(N2CCOCC2)cc(C)c1C(=O)NCc1ccc(F)cc1O` [Example 18, 2-Ethylsulfanyl-N-[(4-fluoro-2-hydroxy-phenyl)methyl]-4-methyl-6-morpholin-4-yl-pyridine-3-carboxylic acid amide]: the Emax is 224% and the EC50 amounted to 98 nM.

As to `CCSc1nc(N2CCOC(C)C2)cc(C)c1C(=O)NCCCC(C)(C)C` (stereo not drawn) [Example 219, N-(4,4-Dimethyl-pentyl)-2-ethylsulfanyl-4-methyl-6-(2-methyl-morpholin-4-yl)-pyridine-3-carboxylic acid amide], the Emax turned out to be 212% and the EC50 is 91 nM.

As for `CCCCOc1nc(N2CCOCC2)cc(C)c1C(=O)NCc1cccc(F)c1` [Example 110, 2-Butoxy-N-[(3-fluorophenyl)-methyl]-4-methyl-6-morpholin-4-yl-pyridine-3-carboxylic acid amide], the Emax came out at 163% and the EC50 came out at 71 nM.

Regarding `CCSc1nc(N2CCOC[C@@H]2COC)cc(C)c1C(=O)NCc1ccc(F)cc1` [Example 249, 2-Ethylsulfanyl-N-[(4-fluorophenyl)-methyl]-6-[(3S)-3-(methoxymethyl)-morpholin-4-yl]-4-methyl-pyridine-3-carboxylic acid amide], the Emax was determined as 129% and the EC50 amounted to 82 nM.

As to `Cc1cc(N2CCOCC2)nc(N(C)C)c1C(=O)NCc1ccc(C(F)(F)F)cc1` [Example 241, 2-Dimethylamino-4-methyl-6-morpholin-4-yl-N-[[4-(trifluoromethyl)-phenyl]-methyl]-pyridine-3-carboxylic acid amide], the Emax came out at 160% and the EC50 was 558 nM.

Regarding `CCSc1nc(N2CCOCC2)cc(C)c1C(=O)NCCC(C)C` [Example 42, 2-Ethylsulfanyl-4-methyl-N-(3-methyl-butyl)-6-morpholin-4-yl-pyridine-3-carboxylic acid amide], the Emax stood at 169% and the EC50 amounted to 571 nM.

As to `CCSc1nc(N2CCCOCC2)cc(C)c1C(=O)NCc1cccc(F)c1` [Example 96, 2-Ethylsulfanyl-N-[(3-fluorophenyl)-methyl]-4-methyl-6-([1,4]oxazepan-4-yl)-pyridine-3-carboxylic acid amide], the Emax stood at 173% and the EC50 amounted to 1100 nM.

(Values after patent US9168259B2 (GRÜNENTHAL GMBH, priority 2010, dated 2015).)
